Experimental data as given in patent US20130072899A1, “Pharmaceutical Formulations for Iontophoretic Delivery of Gallium” (Nitric BloTherapeutics, Inc., priority 2008, published 2013).
“And” between values parts separate entries of the source, which are not always exact repeats. Equal entries are not always repeated. Where two headings read alike, the source gives them in different places.

Columns and labels:
[1] = Chemical stability of Ga in different 50 mM buffers (HPLC gallium recovery); type: physicochemical
Description: The chemical stability of Ga in different 50 mM buffers was assessed including TRIS (pH 7.0), pyrrolidine (pH 11.3), citric acid (pH 5.0), borate (pH 8.0), formic acid (pH 2.5), phosphate (pH 7.3) and HEPES (pH 7.2). Three standard solutions of Ga in each buffer was assessed by HPLC analysis using the method described in Example 1 at four time points 0, 24, 48 and 100 h. Performance was measured by percentage gallium recovery according to the following formula: […]

[2] = Gallium permeated through human cadaver skin, receptor analysis; type: in vitro ADME; conditions: any of the conditions tested
Description: Anodal and cathodal iontophoresis (0.3 mA/cm^2 for 15 min) were carried out using full thickness human cadaver skin in Franz diffusion cells. Ga nitrate solutions (0.15% in 0.05M citrate buffer, or a saturated solution of 16.6% in 0.1M/1M citrate buffer) at different pH conditions (2 to 8) were evaluated.

[3] = Gallium permeation through full thickness human skin, Franz cells (effect of concentration and iontophoresis duration); type: in vitro ADME; conditions: for Amount of Ga detected in receiver after 70 h / Steady state Ga flux: nitrate hydrate; for increase in gallium permeation compared to passive cells: 16.7% w/v, 70 h
Description: Human full thickness skin was stored in the same fashion as the epidermal sheet (Example 3), and a similar Franz cell assembly technique was adopted. The effect of concentration was investigated by applying 16.7, 1.5 and 0.15 % w/v gallium solutions in pH 5.0 citric acid buffer to the donor compartment (0.8 mL). Ten minutes of 400 μA iontophoresis was applied to all of the cells and 0.5 mL samples were removed after 0, 24, 28, 42, 65 and 70 h and replaced with receiver fluid. The gallium in the samples was assayed using the LC ion-exchange method. […] Samples of 0.5 mL were removed for LC ion-exchange assay after 0, 24, 28, 42, 52 and 70 h and replaced with receiver fluid. […] Gallium solutions containing 2.4, 1.6, 0.79, 0.395 and 0.1975 mg of gallium in 20 μL of water were applied to the stratum corneum of the skin samples using a positive displacement pipette (Eppendorf, Cambridge, UK). The samples were then left for 24 h to allow the gallium to permeate the skin. The skin samples were then finely sliced using scissors, chilled and homogenised for five minutes using a T10 Ultra-Turax homogeniser (IKA works, Staufen, Germany) using 30 second pulses. The scalpel, scissors, forceps and homogeniser blades were washed through using 10 mL of PDCA mobile phase concentrate as the extractant. The PDCA concentrate (pH 4.2) was freshly made every week by weighing approximately 5.8 g PDCA, 18.5 g potassium hydroxide, 4.9 g potassium sulphate and 17.0 g of formic acid into a 1000 mL volumetric and making up to volume with DiH2O. The skin-PDCA concentrate homogenate was allowed to mix for a further 24 h before being filtered using 0.45 μm, 30 mm cellulose acetate syringe filters (Orange Scientific, Braine l'Alleud, Belgium). The gallium in the remaining solution was assayed using the LC ion-exchange method. The binding affinity was calculated by subtracting the amount of gallium recovered by the extraction from the amount applied to the skin, in order to gain the amount of gallium still bound to skin in the homogenate. This figure was then divided by the mass of the skin sample to calculate the amount of gallium bound per gram of skin.

[4] = Infinite dose mass balance study, gallium recovery from human skin; conditions: for Ga mass detected per skin surface area: nitrate hydrate
Description: An infinite dose mass balance study was performed using full thickness human skin. Small Franz cells were set up as previously described and the mass and thickness of skin section recorded. […] Cells were then treated with either […] iontophoresis or received no iontophoresis (n=6 for each). […] The skin samples were removed and reweighed.
(Cells dismantled after 0 and 60 h post iontophoresis).

[5] = system: collagen synthesis; conditions: cited from earlier work
[6] = 0.15% w/v, iontophoresis 10 min, 400 μA, listed as Ga
[7] = 1.5% w/v, iontophoresis 10 min, 400 μA, listed as Ga
[8] = 16.67% w/v, iontophoresis 0 min (passive), listed as Ga
[9] = 16.67% w/v, iontophoresis 0 min (passive)
[10] = 16.67% w/v, iontophoresis 10 min, 400 μA, listed as Ga
[11] = 16.67% w/v, iontophoresis 10 min, 400 μA, listed as gallium
[12] = 16.67% w/v, iontophoresis 60 min, 400 μA, listed as Ga
[13] = 16.67% w/v, iontophoresis 60 min, 400 μA
[14] = Ionto (400 μA, 60 min) 0 h, 1.5% w/v
[15] = Ionto (400 μA, 60 min) 60 h, 1.5% w/v

O=[N+]([O-])[O-].O=[N+]([O-])[O-].O=[N+]([O-])[O-].[Ga+3] [gallium nitrate, Gallium (III) nitrate hydrate]
Ga loss after 100 h ([1]; 0.25 mg/ml Ga in pyrrolidine buffer, P<0.05, ANOVA): significant Ga loss | [Ga] mg/ml recovered ([1]; Borate (pH 8.0) 50 mM, listed as Ga, nitrate hydrate): no peaks observed | [Ga] mg/ml recovered ([1]; Citric acid (pH 5.0) 50 mM, target conc. 0.13 mg/ml): 0.15 mg/mL | [Ga] mg/ml recovered ([1]; Citric acid (pH 5.0) 50 mM, target conc. 0.25 mg/ml): 0.28 mg/mL | [Ga] mg/ml recovered ([1]; Citric acid (pH 5.0) 50 mM, target conc. 0.5 mg/ml): 0.54 mg/mL | [Ga] mg/ml recovered ([1]; Formic acid (pH 2.5) 50 mM, target conc. 0.13 mg/ml): 0.16 mg/mL | [Ga] mg/ml recovered ([1]; Formic acid (pH 2.5) 50 mM, target conc. 0.25 mg/ml): 0.29 mg/mL | [Ga] mg/ml recovered ([1]; Formic acid (pH 2.5) 50 mM, target conc. 0.5 mg/ml): 0.55 mg/mL | [Ga] mg/ml recovered ([1]; HEPES (pH 7.2) 50 mM, target conc. 0.13 mg/ml): 0.10 mg/mL | [Ga] mg/ml recovered ([1]; HEPES (pH 7.2) 50 mM, target conc. 0.25 mg/ml): 0.06 mg/mL | [Ga] mg/ml recovered ([1]; HEPES (pH 7.2) 50 mM, target conc. 0.5 mg/ml): 0.13 mg/mL | [Ga] mg/ml recovered ([1]; Phosphate (pH 7.3) 50 mM, target conc. 0.13 mg/ml): 0.04 mg/mL | [Ga] mg/ml recovered ([1]; Phosphate (pH 7.3) 50 mM, target conc. 0.25 mg/ml): 0.11 mg/mL | [Ga] mg/ml recovered ([1]; Phosphate (pH 7.3) 50 mM, target conc. 0.5 mg/ml): 0.30 mg/mL | [Ga] mg/ml recovered ([1]; Pyrrolidine (pH 11.3) 50 mM, target conc. 0.13 mg/ml): 0.13 mg/mL | [Ga] mg/ml recovered ([1]; Pyrrolidine (pH 11.3) 50 mM, target conc. 0.25 mg/ml): 0.25 mg/mL | [Ga] mg/ml recovered ([1]; Pyrrolidine (pH 11.3) 50 mM, target conc. 0.5 mg/ml): 0.49 mg/mL | [Ga] mg/ml recovered ([1]; TRIS (pH 7.0) 50 mM, target conc. 0.13 mg/ml): 0.01 mg/mL | [Ga] mg/ml recovered ([1]; TRIS (pH 7.0) 50 mM, target conc. 0.25 mg/ml): 0.13 mg/mL | [Ga] mg/ml recovered ([1]; TRIS (pH 7.0) 50 mM, target conc. 0.5 mg/ml): 0.49 mg/mL | Ga loss between 0 and 100 h ([1]; citric or formic acid buffer, P>0.05, ANOVA): No significant Ga loss | Ga in the receptor [2]: not detected | Amount of Ga detected in receiver after 70 h [3, 6]: 0.0028 ± 0.006 mg/cm^2 | Steady state Ga flux [3, 6]: 0.008 μg/cm^2/h and 0.008 ± 0.005 μg/cm^2/h | Amount of Ga detected in receiver after 70 h ([3]; 0.15% w/v, iontophoresis 10 min, 400 μA): 0.0028±0.006 mg/cm^2 | reduction of amount of drug permeating the skin ([3]; 1.5% w/v vs 16.67% w/v Ga, 10 min iontophoresis): 10.6% | Amount of Ga detected in receiver after 70 h [3, 7]: 0.044 ± 0.034 mg/cm^2 | Steady state Ga flux [3, 7]: 0.9 μg/cm^2/h and 0.900 ± 0.695 μg/cm^2/h | Amount of Ga detected in receiver after 70 h ([3]; 1.5% w/v, iontophoresis 10 min, 400 μA): 0.0438±0.034 mg/cm^2 | Amount of Ga detected in receiver after 70 h [3, 8]: 0.004 ± 0.011 mg/cm^2 | Steady state Ga flux [3, 8]: 0.009 ± 0.003 μg/cm^2/h | Amount of Ga detected in receiver after 70 h [3, 9]: 0.004±0.011 mg/cm^2 | Steady state Ga flux [3, 9]: 0.009±0.003 μg/cm^2/h | Amount of Ga detected in receiver after 70 h [3, 10]: 0.049 ± 0.013 mg/cm^2 | Steady state Ga flux [3, 10]: 0.9 μg/cm^2/h and 0.900 ± 0.238 μg/cm^2/h | Amount of Ga detected in receiver after 70 h [3, 11]: 0.049±0.013 mg/cm^2 | Steady state Ga flux [3, 11]: 0.9±0.238 μg/cm^2/h | Amount of Ga detected in receiver after 70 h ([3]; 16.67% w/v, iontophoresis 10 min, 400 μA): 0.049±0.013 mg/cm^2 | Amount of Ga detected in receiver after 70 h [3, 12]: 0.063 ± 0.022 mg/cm^2 | Steady state Ga flux [3, 12]: 1.300 ± 0.450 μg/cm^2/h | Amount of Ga detected in receiver after 70 h [3, 13]: 0.063±0.022 mg/cm^2 | Steady state Ga flux [3, 13]: 1.3±0.450 μg/cm^2/h | increase in gallium permeation compared to passive cells ([3]; 10 min iontophoresis): 1125% | increase in gallium permeation compared to passive cells ([3]; 60 min iontophoresis): 1475% | gallium skin deposition (0.15% in 0.05M citrate buffer, pH 2, cathodal 0.3 mA/cm^2 15 min): 277.90 ± 51.24 ng/mg | gallium skin deposition (0.15% in 0.05M citrate buffer, pH 3, cathodal 0.3 mA/cm^2 15 min): 113.16 ± 17.65 ng/mg | gallium skin deposition (0.15% in 0.05M citrate buffer, pH 4, cathodal 0.3 mA/cm^2 15 min): 60.5 ± 21.11 ng/mg | gallium skin deposition (0.15% in 0.05M citrate buffer, pH 6, cathodal 0.3 mA/cm^2 15 min): 51.16 ± 6.65 ng/mg | maximum skin deposition expressed as concentration (16.6% gallium nitrate in 1M citrate at pH 8, 0.3 mA/cm^2 for 15 min): 0.78 mg/mL | gallium skin deposition (16.6% in 0.1 M citrate buffer, pH 2, anodal): 91.74 ± 13.09 ng/mg | gallium skin deposition (16.6% in 0.1 M citrate buffer, pH 4, anodal): 74.42 ± 22.31 ng/mg | gallium skin deposition (16.6% in 0.1 M citrate buffer, pH 6, anodal): 62.19 ± 23.76 ng/mg | gallium skin deposition (16.6% in 0.1 M citrate buffer, pH 6, cathodal): 99.62 ± 36.44 ng/mg | gallium skin deposition (16.6% in 1M citrate buffer, pH 6, cathodal): 163.72 ± 36.72 ng/mg | gallium skin deposition (16.6% in 1M citrate buffer, pH 7, cathodal): 250.49 ± 39.76 ng/mg | gallium skin deposition (16.6% in 1M citrate buffer, pH 8, cathodal, nitrate hydrate): 329.52 ± 36.10 ng/mg and 330 ng/mg | Ga mass detected, full thickness human skin [4, 14]: 0.0788 ± 0.043 mg | Ga mass detected, skin corrected for binding [4, 14]: 0.127 ± 0.043 mg | Ga mass detected per skin surface area ([4]; Ionto (400 μA, 60 min) 0 h, 1.5% w/v, listed as Ga): 0.200 ± 0.069 mg/cm^2 | Ga mass detected per skin surface area [4, 14]: 0.200±0.069 mg/cm^2 | Ga mass detected, full thickness human skin [4, 15]: 0.328 ± 0.371 mg | Ga mass detected, skin corrected for binding [4, 15]: 0.391 ± 0.373 mg | Ga mass detected per skin surface area ([4]; Ionto (400 μA, 60 min) 60 h, 1.5% w/v, listed as Ga): 0.617 ± 0.059 mg/cm^2 | Ga mass detected per skin surface area [4, 15]: 0.617±0.059 mg/cm^2 | Ga mass detected, full thickness human skin ([4]; Passive 0 h, 1.5% w/v): 0.07 ± 0.036 mg | Ga mass detected, skin corrected for binding ([4]; Passive 0 h, 1.5% w/v): 0.111 ± 0.035 mg | Ga mass detected per skin surface area ([4]; Passive 0 h, 1.5% w/v, listed as Ga): 0.178 ± 0.058 mg/cm^2 | Ga mass detected per skin surface area ([4]; Passive 0 h, 1.5% w/v): 0.178±0.058 mg/cm^2 | Ga mass detected, full thickness human skin ([4]; Passive 60 h, 1.5% w/v): 0.0745 ± 0.108 mg | Ga mass detected, skin corrected for binding ([4]; Passive 60 h, 1.5% w/v): 0.137 ± 0.109 mg | Ga mass detected per skin surface area ([4]; Passive 60 h, 1.5% w/v, listed as Ga): 0.221 ± 0.176 mg/cm^2 | Ga mass detected per skin surface area ([4]; Passive 60 h, 1.5% w/v): 0.221±0.176 mg/cm^2 | increase in skin gallium content, iontophoretic vs passive ([4]; after 60 hours, 1.5% w/v): three fold | total gallium in the skin vs levels in the receiver compartment ([4]; both passive and iontophoretic cells): ten-fold higher | increase in detected gallium level in the skin, iontophoresis vs passive ([4]; immediately after iontophoresis): 12% | increase in gallium flux with 60 min iontophoresis compared to passive ([4]; receiver compartment and recovery from the skin): approximate three-fold increase | maximum effective dose ([5]; nitrate hydrate): 100 uM and 0.0256 mg/ml | effective range per mg tissue ([5]; per mg dry weight tissue, Goncalves et al., 2002, Bockman patent): 1 to 1000 ng/mg | effective (desired) concentration range ([5]; published, Bockman et al. 1993, Goncalves et al. 2002): 0.25 to 100 µM
